Measured values reported in patent publication US8871753B2, “Macrocyclic compounds and their use as kinase inhibitors” (Incyte Corporation, priority 2008, dated 2014).

Assays:
Type in all cases: biochemical
[1] = target: T1, human JAK3 (a.a. 781-1124) (Homo sapiens, UniProt P52333); test: In vitro JAK kinase assay (HTRF, phosphorylation of a biotinylated peptide), JAK3; conditions: Table D1
T1 construct: JAK3 (a.a. 781-1124); His tag (N); made in house; host or cells: insect cells (baculovirus)
T1 sequence (P52333 781-1124): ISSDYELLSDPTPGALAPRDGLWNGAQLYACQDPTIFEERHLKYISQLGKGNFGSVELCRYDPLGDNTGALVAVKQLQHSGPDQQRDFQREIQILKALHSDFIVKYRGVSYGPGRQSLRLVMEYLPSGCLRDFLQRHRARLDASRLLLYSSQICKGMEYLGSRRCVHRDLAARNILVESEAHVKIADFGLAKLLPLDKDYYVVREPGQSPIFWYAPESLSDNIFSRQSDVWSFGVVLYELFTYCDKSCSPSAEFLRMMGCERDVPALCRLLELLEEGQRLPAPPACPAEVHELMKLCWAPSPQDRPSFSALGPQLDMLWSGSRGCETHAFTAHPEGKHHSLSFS
Outline: (§1)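 Kinase reactions ran at room temperature for 1 h with ATP matched per isoform (JAK1 90 μM, JAK2 30 μM, JAK3 3 μM). After an EDTA stop, the phosphorylated biotin-peptide was read by HTRF using Eu-Py20 and SA-APC after 40 min binding.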

[2] = target: T2, human JAK2 (a.a. 828-1132) (Homo sapiens, UniProt O60674); test: In vitro JAK kinase assay (HTRF, phosphorylation of a biotinylated peptide), JAK2; conditions: Table D1
T2 construct: JAK2 (a.a. 828-1132); His tag (N); made in house; host or cells: insect cells (baculovirus)
T2 sequence (O60674 828-1132): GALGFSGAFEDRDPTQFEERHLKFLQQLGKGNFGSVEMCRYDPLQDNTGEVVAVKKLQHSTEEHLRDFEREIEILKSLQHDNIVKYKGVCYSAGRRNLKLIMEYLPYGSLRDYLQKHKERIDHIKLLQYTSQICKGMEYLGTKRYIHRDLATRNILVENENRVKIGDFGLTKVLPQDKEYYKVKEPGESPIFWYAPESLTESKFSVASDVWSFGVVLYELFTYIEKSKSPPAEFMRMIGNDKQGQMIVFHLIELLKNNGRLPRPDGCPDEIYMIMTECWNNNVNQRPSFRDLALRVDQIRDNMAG
Outline: as §1

[3] = target: TYK2 (Homo sapiens, UniProt P29597); test: TYK2 kinase inhibition (Table A1); conditions: Table D1
Sequence of TYK2 (P29597 whole entry): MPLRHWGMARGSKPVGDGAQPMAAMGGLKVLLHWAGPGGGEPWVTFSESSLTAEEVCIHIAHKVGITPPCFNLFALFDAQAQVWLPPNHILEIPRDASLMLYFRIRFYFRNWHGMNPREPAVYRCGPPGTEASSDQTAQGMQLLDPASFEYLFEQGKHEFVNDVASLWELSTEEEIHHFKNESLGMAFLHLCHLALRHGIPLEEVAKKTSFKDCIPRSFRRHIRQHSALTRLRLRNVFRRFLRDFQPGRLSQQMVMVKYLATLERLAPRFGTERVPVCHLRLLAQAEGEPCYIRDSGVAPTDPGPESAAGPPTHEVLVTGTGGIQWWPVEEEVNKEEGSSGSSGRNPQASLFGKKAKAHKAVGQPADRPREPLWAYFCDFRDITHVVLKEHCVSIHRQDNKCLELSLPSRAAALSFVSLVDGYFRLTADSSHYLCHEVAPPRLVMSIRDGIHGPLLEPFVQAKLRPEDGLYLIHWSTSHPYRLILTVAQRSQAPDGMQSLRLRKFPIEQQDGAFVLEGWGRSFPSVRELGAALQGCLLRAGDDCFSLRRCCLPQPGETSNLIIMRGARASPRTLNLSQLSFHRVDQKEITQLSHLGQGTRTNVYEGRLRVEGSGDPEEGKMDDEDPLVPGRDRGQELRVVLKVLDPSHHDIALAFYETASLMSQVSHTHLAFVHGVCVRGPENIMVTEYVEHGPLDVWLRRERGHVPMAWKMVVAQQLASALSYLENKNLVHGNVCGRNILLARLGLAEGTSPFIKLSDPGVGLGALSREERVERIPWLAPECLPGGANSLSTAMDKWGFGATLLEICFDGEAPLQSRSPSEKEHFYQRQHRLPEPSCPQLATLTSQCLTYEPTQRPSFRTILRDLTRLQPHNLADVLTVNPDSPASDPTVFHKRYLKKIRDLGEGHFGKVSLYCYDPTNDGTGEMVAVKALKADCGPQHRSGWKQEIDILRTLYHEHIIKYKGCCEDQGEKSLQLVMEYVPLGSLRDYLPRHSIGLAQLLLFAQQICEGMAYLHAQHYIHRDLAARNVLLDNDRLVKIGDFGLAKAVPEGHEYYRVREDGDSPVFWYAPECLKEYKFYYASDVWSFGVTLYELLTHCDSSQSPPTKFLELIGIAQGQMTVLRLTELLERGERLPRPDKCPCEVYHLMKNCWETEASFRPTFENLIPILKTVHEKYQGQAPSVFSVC

[4] = target: T3, human JAK1 (a.a. 837-1142) (Homo sapiens, UniProt P23458); test: In vitro JAK kinase assay (HTRF, phosphorylation of a biotinylated peptide), JAK1; conditions: Table D1; read-out: JAK1 IC50
T3 construct: human JAK1 (a.a. 837-1142); His tag (N); made in house; host or cells: insect cells (baculovirus)
T3 sequence (P23458 849-1154): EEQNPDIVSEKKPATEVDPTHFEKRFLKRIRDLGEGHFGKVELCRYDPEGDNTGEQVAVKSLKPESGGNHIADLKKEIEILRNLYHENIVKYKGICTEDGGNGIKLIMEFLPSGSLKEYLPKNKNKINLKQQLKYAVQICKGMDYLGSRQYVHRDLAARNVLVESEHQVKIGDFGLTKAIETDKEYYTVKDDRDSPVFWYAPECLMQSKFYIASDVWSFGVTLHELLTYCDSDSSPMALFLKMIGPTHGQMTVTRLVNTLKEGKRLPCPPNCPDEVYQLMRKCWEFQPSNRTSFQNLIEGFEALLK
Outline: as §1

| IC50 [1] [nM] | IC50 [2] [nM] | IC50 [3] [nM] | IC50 [4] [nM] | Compound |
| --- | --- | --- | --- | --- |
| > 400 | > 400 | > 400 | 255 | O=C(COc1ccc2cc1CCc1cncc(c1)Nc1ncc(Cl)c(n1)N2)N1CCN(c2cccc(Cl)n2)CC1 [Example D240, 6-Chloro-12-{2-[4-(6-chloropyridin-2-yl)piperazin-1-yl]-2-oxoethoxy}-2,4,8,18,22-pentaazatetracyclo[14.3.1.1(3,7).1(9,13)]docosa-1(20),3(22),4,6,9(21),10,12,16,18-nonaene tris(trifluoroacetate)] |
| > 400 | 180 | > 400 | 41 | COc1ccccc1N1CCN(C(=O)COc2ccc3cc2CCc2cncc(c2)Nc2ncc(Cl)c(n2)N3)CC1 [Example D241, 6-Chloro-12-{2-[4-(2-methoxyphenyl)piperazin-1-yl]-2-oxoethoxy}-2,4,8,18,22-pentaazatetracyclo[14.3.1.1(3,7).1(9,13)]docosa-1(20),3(22),4,6,9(21),10,12,16,18-nonaene tris(trifluoroacetate)] |
| > 400 | 159 | > 400 | 46 | O=C(COc1ccc2cc1CCc1cncc(c1)Nc1ncc(Cl)c(n1)N2)N1CCN(c2ccc(F)cc2)CC1 [Example D242, 6-Chloro-12-{2-[4-(4-fluorophenyl)piperazin-1-yl]-2-oxoethoxy}-2,4,8,18,22-pentaazatetracyclo[14.3.1.1(3,7).1(9,13)]docosa-1(20),3(22),4,6,9(21),10,12,16,18-nonaene tris(trifluoroacetate)] |
| > 400 | 300 | 326 | 60 | O=C(COc1ccc2cc1CCc1cncc(c1)Nc1ncc(Cl)c(n1)N2)N1CCN(c2ccncc2)CC1 [Example D243, 6-Chloro-12-[2-oxo-2-(4-pyridin-4-ylpiperazin-1-yl)ethoxy]-2,4,8,18,22-pentaazatetracyclo[14.3.1.1(3,7).1(9,13)]docosa-1(20),3(22),4,6,9(21),10,12,16,18-nonaene tris(trifluoroacetate)] |
| > 400 | 358 | > 400 | 80 | O=C(COc1ccc2cc1CCc1cncc(c1)Nc1ncc(Cl)c(n1)N2)N1CCN(c2cc(Cl)ccn2)CC1 [Example D244, 6-Chloro-12-{2-[4-(4-chloropyridin-2-yl)piperazin-1-yl]-2-oxoethoxy}-2,4,8,18,22-pentaazatetracyclo[14.3.1.1(3,7).1(9,13)]docosa-1(20),3(22),4,6,9(21),10,12,16,18-nonaene tris(trifluoroacetate)] |
| > 400 | > 400 | > 400 | 75 | O=C(COc1ccc2cc1CCc1cncc(c1)Nc1ncc(Cl)c(n1)N2)N1CCN(c2nccc3occc23)CC1 [Example D245, 6-Chloro-12-[2-(4-furo[3,2-c]pyridin-4-ylpiperazin-1-yl)-2-oxoethoxy]-2,4,8,18,22-pentaazatetracyclo[14.3.1.1(3,7).1(9,13)]docosa-1(20),3(22),4,6,9(21),10,12,16,18-nonaene tris(trifluoroacetate)] |
| > 400 | 226 | > 400 | 30 | Cc1ccc(N2CCN(C(=O)COc3ccc4cc3CCc3cncc(c3)Nc3ncc(Cl)c(n3)N4)CC2)nc1 [Example D246, 6-Chloro-12-{2-[4-(5-methylpyridin-2-yl)piperazin-1-yl]-2-oxoethoxy}-2,4,8,18,22-pentaazatetracyclo[14.3.1.1(3,7).1(9,13)]docosa-1(20),3(22),4,6,9(21),10,12,16,18-nonaene tris(trifluoroacetate)] |
| > 400 | > 400 | > 400 | 82 | O=C(COc1ccc2cc1CCc1cncc(c1)Nc1ncc(Cl)c(n1)N2)N1CCN(c2cc(Cl)cc(Cl)n2)CC1 [Example D247, 6-Chloro-12-{2-[4-(4,6-dichloropyridin-2-yl)piperazin-1-yl]-2-oxoethoxy}-2,4,8,18,22-pentaazatetracyclo[14.3.1.1(3,7).1(9,13)]docosa-1(20),3(22),4,6,9(21),10,12,16,18-nonaene tris(trifluoroacetate)] |
| > 400 | > 400 | > 400 | 59 | O=C(COc1ccc2cc1CCc1cncc(c1)Nc1ncc(Cl)c(n1)N2)N1CCN(c2cccc(C(F)(F)F)n2)CC1 [Example D248, 6-Chloro-12-(2-oxo-2-{4-[6-(trifluoromethyl)pyridin-2-yl]piperazin-1-yl}ethoxy)-2,4,8,18,22-pentaazatetracyclo[14.3.1.1(3,7).1(9,13)]docosa-1(20),3(22),4,6,9(21),10,12,16,18-nonaene tris(trifluoroacetate)] |
| > 400 | > 400 | > 400 | 71 | COc1cccnc1N1CCN(C(=O)COc2ccc3cc2CCc2cncc(c2)Nc2ncc(Cl)c(n2)N3)CC1 [Example D249, 6-Chloro-12-{2-[4-(3-methoxypyridin-2-yl)piperazin-1-yl]-2-oxoethoxy}-2,4,8,18,22-pentaazatetracyclo[14.3.1.1(3,7).1(9,13)]docosa-1(20),3(22),4,6,9(21),10,12,16,18-nonaene tris(trifluoroacetate)] |
| > 400 | 49 | > 400 | 43 | O=C(COc1ccc2cc1CCc1cncc(c1)Nc1ncc(Cl)c(n1)N2)N1CCN(c2noc3ccccc23)CC1 [Example D250, 12-{2-[4-(1,2-Benzisoxazol-3-yl)piperazin-1-yl]-2-oxoethoxy}-6-chloro-2,4,8,18,22-pentaazatetracyclo[14.3.1.1(3,7).1(9,13)]docosa-1(20),3(22),4,6,9(21),10,12,16,18-nonaene tris(trifluoroacetate)] |
| > 400 | 17 | > 400 | 18 | Cc1cc(C(=O)N2CCN(C(=O)COc3ccc4cc3CCc3cncc(c3)Nc3ncc(Cl)c(n3)N4)CC2)no1 [Example D251, 6-Chloro-12-(2-{4-[(5-methylisoxazol-3-yl)carbonyl]piperazin-1-yl}-2-oxoethoxy)-2,4,8,18,22-pentaazatetracyclo[14.3.1.1(3,7).1(9,13)]docosa-1(20),3(22),4,6,9(21),10,12,16,18-nonaene bis(trifluoroacetate)] |
| > 400 | 244 | > 400 | 65 | CC(=O)N1CCN(C(=O)COc2ccc3cc2CCc2cncc(c2)Nc2ncc(Cl)c(n2)N3)CC1 [Example D252, 12-[2-(4-Acetylpiperazin-1-yl)-2-oxoethoxy]-6-chloro-2,4,8,18,22-pentaazatetracyclo[14.3.1.1(3,7).1(9,13)]docosa-1(20),3(22),4,6,9(21),10,12,16,18-nonaene bis(trifluoroacetate)] |
| > 400 | 67 | > 400 | 35 | O=C(COc1ccc2cc1CCc1cncc(c1)Nc1ncc(Cl)c(n1)N2)N1CCN(S(=O)(=O)c2ccccc2F)CC1 [Example D253, 6-Chloro-12-(2-{4-[(2-fluorophenyl)sulfonyl]piperazin-1-yl}-2-oxoethoxy)-2,4,8,18,22-pentaazatetracyclo[14.3.1.1(3,7).1(9,13)]docosa-1(20),3(22),4,6,9(21),10,12,16,18-nonaene bis(trifluoroacetate)] |
| > 400 | 49 | 356 | 8.1 | N#Cc1ccccc1S(=O)(=O)N1CCN(C(=O)COc2ccc3cc2CCc2cncc(c2)Nc2ncc(Cl)c(n2)N3)CC1 [Example D254, 2-{[4-({[6-Chloro-2,4,8,18,22-pentaazatetracyclo[14.3.1.1(3,7).1(9,13)]docosa-1(20),3(22),4,6,9(21),10,12,16,18-nonaen-12-yl]oxy}acetyl)piperazin-1-yl]sulfonyl}benzonitrile bis(trifluoroacetate)] |
| > 400 | 112 | > 400 | 63 | O=C(COc1ccc2cc1CCc1cncc(c1)Nc1ncc(Cl)c(n1)N2)N1CCC(c2cc(-c3cccs3)[nH]n2)CC1 [Example D257, 6-Chloro-12-(2-oxo-2-{4-[5-(2-thienyl)-1H-pyrazol-3-yl]piperidin-1-yl}ethoxy)-2,4,8,18,22-pentaazatetracyclo[14.3.1.1(3,7).1(9,13)]docosa-1(20),3(22),4,6,9(21),10,12,16,18-nonaene tris(trifluoroacetate)] |

| Compound | IC50 [1] [nM] | IC50 [2] [nM] | IC50 [3] [nM] | IC50 [4] [nM] |
| --- | --- | --- | --- | --- |
| O=C(COc1ccc2cc1CCc1cncc(c1)Nc1ncc(Cl)c(n1)N2)N1CCN(Cc2cccnc2)CC1 [Example D255, 6-Chloro-12-{2-oxo-2-[4-(pyridin-3-ylmethyl)piperazin-1-yl]ethoxy}-2,4,8,18,22-pentaazatetracyclo[14.3.1.1(3,7).1(9,13)]docosa-1(20),3(22),4,6,9(21),10,12,16,18-nonaene tris(trifluoroacetate)] | > 400 | 226 | > 400 | 90 |
| O=C(COc1ccc2cc1CCc1cncc(c1)Nc1ncc(Cl)c(n1)N2)N1CCN(Cc2ccncc2)CC1 [Example D256, 6-Chloro-12-{2-oxo-2-[4-(pyridin-4-ylmethyl)piperazin-1-yl]ethoxy}-2,4,8,18,22-pentaazatetracyclo[14.3.1.1(3,7).1(9,13)]docosa-1(20),3(22),4,6,9(21),10,12,16,18-nonaene tris(trifluoroacetate)] | > 400 | 217 | > 400 | 150 |
